In test [1] the target is Nucleic Acid. Briefly: Binding affinity to A site of biotinylated 16S rRNA (unknown origin) by surface plasmon resonance analysis. The class given is nucleic-acid assay. A general note: Surface plasmon resonance follows binding to a sensor surface in real time, without labels.
Test [2] concerns the target Nucleic Acid. Briefly: Binding affinity to biotinylated HIV1 trans-activation response element RNA by surface plasmon resonance analysis. The class given is nucleic-acid assay, Human immunodeficiency virus 1.
In the next test the test system is Escherichia coli. Briefly: Antibacterial activity against Escherichia coli ATCC 25922 after 18 hrs. The class given is functional. The conditions noted are these: ATCC 25922, 18 h.
The subject of another test is Staphylococcus aureus. Briefly: Antibacterial activity against Staphylococcus aureus ATCC 29213 after 18 hrs. The class given is functional. The conditions noted are these: ATCC 29213, 18 h.
The subject of another test is Pseudomonas aeruginosa. Briefly: Antibacterial activity against Pseudomonas aeruginosa ATCC 27853 after 18 hrs. The conditions noted are these: ATCC 27853, 18 h. The class given is functional.

Values after ≈ are worked out from the molar mass of the structure shown.

`NCCN[C@H]1[C@@H](O)[C@H](N)C[C@H](N)[C@@H]1O[C@H]1O[C@H](CN)[C@@H](O)[C@H](O)[C@H]1N`: the Kd on Nucleic Acid [1] was found to be 7 µM; on Nucleic Acid [2], 14 µM. The MIC against Escherichia coli is 100 µM (≈ 36.4 µg/mL); in the test on Staphylococcus aureus, above 100 µM; against Pseudomonas aeruginosa it was 50 µM (≈ 18.2 µg/mL).
For `N=C(N)NCCC[C@H](N)C(=O)NCCN[C@H]1[C@@H](O)[C@H](N)C[C@H](N)[C@@H]1O[C@H]1O[C@H](CN)[C@@H](O)[C@H](O)[C@H]1N` the same measures were 2 µM, 3 µM, 100 µM (≈ 52.1 µg/mL), above 100 µM and above 100 µM.
Regarding `NCCCC[C@H](N)C(=O)NCCN[C@H]1[C@@H](O)[C@H](N)C[C@H](N)[C@@H]1O[C@H]1O[C@H](CN)[C@@H](O)[C@H](O)[C@H]1N`, the Kd at Nucleic Acid [1] amounted to 1 µM; on Nucleic Acid [2] it was 2 µM. For the same molecule, the MIC in the test on Escherichia coli is 50 µM (≈ 24.6 µg/mL); in the test on Staphylococcus aureus, 25 µM (≈ 12.3 µg/mL); with Pseudomonas aeruginosa, above 100 µM.
For `NC[C@H]1O[C@H](O[C@H]2[C@H](O)[C@@H](O)[C@H](N)C[C@@H]2N)[C@H](N)[C@@H](O)[C@@H]1O` [NEAMINE] the same measures were 19 µM, 24 µM, 50 µM (≈ 16.1 µg/mL), 50 µM (≈ 16.1 µg/mL) and above 100 µM.

As usually defined, the Kd is the concentration at which binding is half-saturated. Low readings indicate tighter binding, high ones weaker binding. In general, MIC refers to the least concentration at which growth counts as inhibited. A higher MIC goes with weaker potency.
